In US4522824A, “Indole derivatives of tryptamine and cardiovascular compositions thereof” (Sanofi, priority 1982, dated 1985):
Counter-ions that a name gives are not always drawn.

What was measured:
β-adrenergic receptors = assay: Antagonism of the effects of isoprenaline (tachycardia) in the anaesthetized dog; format: in vivo; details: dose inhibiting 80% of the tachycardia induced by i.v. isoprenaline, intravenous
Protocol: (§1) In vivo pharmacological action in the dog
(§2) The dog is anaesthetized with sodium pentobarbital, administered by the intravenous route at the dose of 30 mg/kg. A cannula placed in the short saphenous vein allows the products to be injected intravenously. The animal is intubated and allowed to breathe spontaneously.
(§3) The cardiac frequency (C.F.) and the systemic arterial pressure (A.P.) and the parameter (dP/dt)p^-1 max which expresses the cardiac contractibility are recorded with the aid of catheters and the variations in these parameters are measured after intravenous injection of the product to be tested, each product being tested at increasing doses.
Antagonism of the effects of isoprenaline
The antagonism of the products with respect to the stimulating cardiovascular effects of isoprenaline on the β-adrenergic receptors was sought. The results are shown in Table II hereinafter and expressed in ID80 : this is the dose expressed in mg/kg which provokes inhibition of 80% of the tachycardia induced by the isoprenaline administered by the intravenous route.

[1] = In vivo pharmacological action in the anaesthetized dog (cardiac frequency, systemic arterial pressure, cardiac contractibility); details: Table II, parameter name is in the drawing [drawing 9], intravenous; for direct effect: first sign; for direct effect, [drawing 9]: second sign (wrapped to next line)
Protocol: as §1, §2, §3

[2] = Cardiac frequency in the alert dog after oral administration; format: in vivo
Description: The different results on the cardiovascular system obtained in the anaesthetized dog have been confirmed for certain products in the alert dog after administration of the product by the oral route.

α-adrenergic receptors = assay: Antagonism of the effects of noradrenaline (pressive response) in the dog; format: in vivo; details: dose inhibiting 50% of the pressive response to i.v. noradrenaline
Protocol: as §1, §2, §3
Antagonism of the effects of noradrenaline
The antagonism of the products with respect to the vascular effects provoked by the intravenous administration of noradrenaline on the α-adrenergic receptors was sought. The results shown in Table II are expressed in ID50 : this is the dose (mg/kg) which provokes the inhibition of 50% of the pressive response due to the intravenous administration of noradrenaline.

[3] = Chronotropic effect in the dog subjected to reserpine and anaesthetized; format: in vivo; details: 1 mg/kg intravenous

SMILES	ID80 isoprenaline, β-effect (β-adrenergic receptors)	direct effect [1]	direct effect, [drawing 9] [1]	effect on cardiac frequency [2]	ID50 (α-adrenergic receptors)	chronotropic effect [3]
CC(C)(Cc1c[nH]c2ccccc12)NCC(O)COc1cccc2[nH]c(C#N)cc12 (stereo not drawn) [SR41370A]	0.05 mg/kg	weak .dwnarw.	.uparw.	–	–	–
CC(C)(Cc1c[nH]c2ccccc12)NCC(O)COc1cccc2[nH]c(C(N)=O)cc12 (stereo not drawn) [CM41105]	0.1 mg/kg	weak .dwnarw.	.uparw.	–	–	–
CC(C)(Cc1c[nH]c2ccccc12)NCC(O)COc1cccc2[nH]c(C(=O)O)cc12 (stereo not drawn) [SR41828A]	0.3 mg/kg	= or .dwnarw.	=	decrease the cardiac frequency or are without action thereon	–	–
CCOC(=O)c1cc2c(OCC(O)CNC(C)(CO)Cc3c[nH]c4ccccc34)cccc2[nH]1 (stereo not drawn) [SR41832]	0.1 mg/kg	.dwnarw.	.dwnarw.	–	–	–
CCOC(=O)c1cc2c(OCC(O)CNC(C)(C)Cc3c[nH]c4ccc(C)cc34)cccc2[nH]1 (stereo not drawn) [SR41716A]	–	–	–	decrease the cardiac frequency or are without action thereon	–	–
CCOC(=O)c1cc2c(OCC(O)CNC(C)(C)Cc3c[nH]c4ccc(Cl)cc34)cccc2[nH]1 (stereo not drawn) [SR41780A]	–	–	–	decrease the cardiac frequency or are without action thereon	–	–
CCOC(=O)c1cc2c(OCC(O)CNC(C)(C)Cc3c[nH]c4ccc(OC)cc34)cccc2[nH]1 (stereo not drawn) [SR41648]	0.1 mg/kg	.dwnarw.	.dwnarw.	–	–	–
CCOC(=O)c1cc2c(OCC(O)CNC(C)(C)Cc3c[nH]c4ccc(C#N)cc34)cccc2[nH]1 (stereo not drawn) [SR41831A, 4-[3-[(5-cyano 3-indolyl)1,1-dimethylethylamino]2-hydroxypropoxy]2-ethoxycarbonyl indole, neutral fumarate]	0.1 mg/kg	.dwnarw.	.dwnarw.	–	–	–
CCOC(=O)c1cc2c(OCC(O)CNC(C)(C)Cc3c[nH]c4ccc(F)cc34)cccc2[nH]1 (stereo not drawn) [SR41779A]	–	–	–	decrease the cardiac frequency or are without action thereon	–	–
CCOC(=O)c1cc2c(OCC(O)CNC(C)(C)Cc3c[nH]c4ccccc34)cccc2[nH]1 (stereo not drawn) [CM40593, 4-[3-[2-(3-indolyl)1,1-dimethylethylamino]2-hydroxypropoxy]2-ethoxycarbonyl indole]	0.1 mg/kg	= or .dwnarw.	.uparw.	–	0.1 mg/kg	slight positive chronotropic effect
CC(C)OC(=O)c1cc2c(OCC(O)CNC(C)(C)Cc3c[nH]c4ccccc34)cccc2[nH]1 (stereo not drawn) [SR41719A]	–	–	–	decrease the cardiac frequency or are without action thereon	–	–
CCCCN(CCCC)C(=O)c1cc2c(OCC(O)CNC(C)(C)Cc3c[nH]c4ccccc34)cccc2[nH]1 (stereo not drawn) [SR41830A]	1 mg/kg	–	.uparw.	–	–	–
CCOC(=O)c1cc2c(OCC(O)CNC(C)Cc3c[nH]c4ccccc34)cccc2[nH]1 (racemic) [SR41294A]	0.1 mg/kg	.dwnarw.	.dwnarw.	–	–	–
CC(C)(Cc1c[nH]c2ccccc12)NCC(O)COc1cccc2[nH]c(CO)cc12 (stereo not drawn) [CM41165]	0.05 mg/kg	.dwnarw.	.dwnarw.	–	–	–
